In article PMC8881573, “Inhibition of SRP-dependent protein secretion by the bacterial alarmone (p)ppGpp” (Nature Communications, 2022):

Tests used:
[1] = target: T1, (Bs)Ffh-NG (Bacillus subtilis, UniProt P37105); experiment: Microscale thermophoresis (MST) ligand binding; parameters: species or system B. subtilis; settings: NG domain labeled with NT 647, 21 °C
T1 construct: purified NG domains of (Ec)Ffh, (Ec)FtsY and (Bs)Ffh; His6 (N); made in house; host or cells: E. coli Rosetta pLysS
T1 sequence (P37105 1-297 limits assumed): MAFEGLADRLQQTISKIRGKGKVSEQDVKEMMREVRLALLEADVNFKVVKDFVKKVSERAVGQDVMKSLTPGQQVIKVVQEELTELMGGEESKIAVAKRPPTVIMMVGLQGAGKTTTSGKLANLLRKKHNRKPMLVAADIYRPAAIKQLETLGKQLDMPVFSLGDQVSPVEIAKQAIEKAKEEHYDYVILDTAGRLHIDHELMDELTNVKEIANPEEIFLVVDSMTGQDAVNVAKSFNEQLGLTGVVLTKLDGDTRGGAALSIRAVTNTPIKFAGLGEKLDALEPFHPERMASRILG
Description: Ligand binding assays with purified NG domains of (Ec)Ffh, (Ec)FtsY and (Bs)Ffh proteins were carried out by microscale thermophoresis (MST)[80]. All experiments were performed on a Monolith NT.115 (NanoTemper Technologies GmbH, Munich, Germany; software: NanoTemper Control Version 2.0.2.29) at 21 °C (red LED power was set to 50–100% and infrared laser power to 75%). After labeling of primary amines within (Ec)Ffh, (Ec)FtsY, and (Bs)Ffh (50 µM each) with the dye NT 647 (according to the manufacturers protocol), the proteins were re-buffered in SEC buffer containing 20 mM HEPES-Na, 20 mM KCl, 20 mM MgCl2, 200 mM NaCl (final pH 7.5), 10 mg ml^−1 BSA and 0.007% Tween. Two-hundred nanomolar of (Ec)Ffh, (Ec)FtsY, and (Bs)Ffh were titrated with GDP, GTP, ppGpp, and pppGpp starting from a concentration ranging between 0.75 and 3 mM, respectively. At least six independent MST experiments per ligand and protein were recorded at 680 nm and analyzed using NanoTemper Analysis version 1.5.37 and 1.2.009, and Origin8G software suits.

[2] = target: T2, (Ec)Ffh-NG (Escherichia coli, UniProt P0AGD7); experiment: Isothermal titration calorimetry (ITC) of nucleotide binding; parameters: species or system E. coli
T2 construct: purified NG domains of (Ec)Ffh, (Ec)FtsY and (Bs)Ffh; His6 (C); made in house; host or cells: E. coli BL21 (DE3)
T2 sequence (P0AGD7 1-296): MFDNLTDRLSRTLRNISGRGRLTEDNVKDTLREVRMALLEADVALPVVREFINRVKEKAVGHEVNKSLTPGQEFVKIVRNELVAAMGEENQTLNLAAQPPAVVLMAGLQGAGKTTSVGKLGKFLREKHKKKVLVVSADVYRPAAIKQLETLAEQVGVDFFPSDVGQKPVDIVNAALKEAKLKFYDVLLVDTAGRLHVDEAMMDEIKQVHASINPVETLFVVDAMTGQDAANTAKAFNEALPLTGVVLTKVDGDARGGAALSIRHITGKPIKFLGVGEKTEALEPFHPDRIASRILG
Description: Ligands and proteins (purified NG domains of (Ec)Ffh, (Ec)FtsY and (Bs)Ffh) were diluted with a buffer containing 20 mM HEPES-Na (pH 7.5), 200 mM NaCl, 20 mM MgCl2 and 20 mM KCl. The NG domains of (Ec)Ffh, (Ec)FtsY and (Bs)Ffh were titrated in the sample-cell at a nominal concentration of 25 µM each. The nucleotides GDP, GTP, ppGpp and pppGpp (Jena Bioscience, Germany) were placed in the syringe and their concentrations were predetermined by absorbance at 252 nm to saturate the protein samples during the titrations. All the measurements were performed at 25 °C with the instrument MicroCal PEAQ-ITC (©Malvern Panalytical) with a method consisting of 13 injections (first 0.4 µL, and the rest 3 µL each) and 150 s of spacing. The raw data (see source) were processed with the MicroCal PEAQ-ITC Analysis Software (©Malvern Panalytical) using the “one set of sites” models.

[3] = target: T3, full-length (Ec)Ffh and (Ec)FtsY-NG (Escherichia coli, UniProt P0AGD7+P10121); experiment: GTPase activity (GTP hydrolysis, HPLC); format: biochemical, E. coli; settings: alarmone at concentrations equimolar to the GTP substrate (1 mM) or higher; with or without 4.5S RNA, ΔEspP signal peptide, C12E8
T3 construct: GTPase activity of full-length (Ec)Ffh and the NG domain of (Ec)FtsY was assayed; His-tag; His6 (C); made in house; host or cells: E. coli BL21 (DE3)
T3 sequence (P0AGD7 whole entry, the tested form may be a part): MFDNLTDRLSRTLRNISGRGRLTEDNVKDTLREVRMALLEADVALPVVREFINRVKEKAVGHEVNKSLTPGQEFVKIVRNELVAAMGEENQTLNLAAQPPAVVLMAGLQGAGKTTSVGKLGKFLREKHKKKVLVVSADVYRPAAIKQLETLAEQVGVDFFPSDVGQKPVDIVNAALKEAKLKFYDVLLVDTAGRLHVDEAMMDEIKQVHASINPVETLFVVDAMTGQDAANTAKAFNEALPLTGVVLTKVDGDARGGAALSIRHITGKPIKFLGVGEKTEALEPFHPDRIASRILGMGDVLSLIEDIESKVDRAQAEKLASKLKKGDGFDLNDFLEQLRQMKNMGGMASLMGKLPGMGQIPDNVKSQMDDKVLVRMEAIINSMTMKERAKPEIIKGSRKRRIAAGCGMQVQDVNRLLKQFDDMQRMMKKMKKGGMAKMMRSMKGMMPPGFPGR
T3 sequence (P10121 197-497): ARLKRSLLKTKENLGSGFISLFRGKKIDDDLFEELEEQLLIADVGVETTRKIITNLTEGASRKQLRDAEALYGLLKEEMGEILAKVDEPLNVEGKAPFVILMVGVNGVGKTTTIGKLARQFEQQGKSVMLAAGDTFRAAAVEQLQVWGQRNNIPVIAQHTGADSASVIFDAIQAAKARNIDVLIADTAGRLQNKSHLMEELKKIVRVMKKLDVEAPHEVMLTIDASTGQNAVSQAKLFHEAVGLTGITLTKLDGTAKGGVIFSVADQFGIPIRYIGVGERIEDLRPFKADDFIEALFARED
Description: GTPase activity of full-length (Ec)Ffh and the NG domain of (Ec)FtsY was assayed in a buffer containing 25 mM HEPES-K pH 7.5, 10 mM Mg(OAc)2, 300 mM K(OAc), 1 mM DTT, and 2.5% (v/v) glycerol. The samples contained 5 µM (Ec)Ffh, 5 µM (Ec)FtsY-NG, 6 µM 4.5S RNA, 5 µM ΔEspP (EspP signal peptide sequence: MKK HKR ILA LCF LGL LQS SYS WAK KKK, custom synthesized from Genosphere Biotechnologies (France)[40], and 100 µM C12E8 (octaethylenglykol-monododecylether, Sigma Aldrich)[40] as indicated in figures. Alarmones ppGpp (Jena Bioscience, ≥95% purity) or pppGpp (Jena Bioscience, ≥85% purity) were supplemented in concentrations of 10, 25, 100, 250, 1000, 2500, or 10,000 µM as indicated in the figures. The enzymatic reactions were initiated by the addition of 1 mM GTP (Jena Bioscience, ≥99% purity) and allowed to proceed for 60 min at 37 °C, after which 40 µL double-distilled water were added immediately followed by 150 µL of chloroform. […] The nucleotide content was determined by high-performance liquid chromatography (HPLC) on an Agilent 1260 Infinity system (software: ChemStation Rev. B04.03-SP1) equipped with a Metrosep A Supp 5–150/4.0 column (Metrohm). Ten microliters of sample were injected and nucleotides eluted isocratically at 0.6 mL min^−1 flow rate of 100 mM (NH4)2CO3 pH 9.25 and detected at 260 nm wavelength. […]

SMILES | Kd [1] | Kd [2] | GTP hydrolysis [3]
Nc1nc2c(ncn2[C@@H]2O[C@H](COP(=O)(O)OP(=O)(O)O)[C@@H](OP(=O)(O)OP(=O)(O)O)[C@H]2O)c(=O)[nH]1 [ppGpp] | 32.2 ± 7.5 µM | 7.9 ± 1.9 µM | reduction of GTP hydrolysis
Nc1nc2c(ncn2[C@@H]2O[C@H](COP(=O)(O)OP(=O)(O)OP(=O)(O)O)[C@@H](OP(=O)(O)OP(=O)(O)O)[C@H]2O)c(=O)[nH]1 [pppGpp] | 27.2 ± 9.8 µM | 13.9 ± 7.1 µM | reduction of GTP hydrolysis
